The results in this text go back to EP4680608B1, “2,6-DIHYDRO-7H-PYRAZOLO[3,4-C]PYRIDIN-7-ONE DERIVATIVES AS ANTI-MALARIAL AGENTS” (MMV Medicines for Malaria Venture, priority 2024, dated 2025).

SMILES strings stand for the structures. Read-outs that look alike come from different tables or passages of the source.

In experiment [1] the target is P. vivax DHODH (Plasmodium vivax, UniProt A5K1N1). Nature of the experiment: DHODH inhibition, steady-state DCIP assay (PvDHODH). The format is biochemical. The text has this:
(§1) DOI: 10.1074/jbc.M206854200).
(§2) Proteins were expressed and purified on a Pharmacia FPLC using HisTrap HP column chromatography followed by gel filtration chromatography on a Pharmacia HiLoad 16/600 Superdex 200 column, and protein concentration determined based on OD280 using the previously described extinction coefficients (Kokkonda et al., 2020, J Med Chem, 63 (9), 4929-4956. DOI: 10.1021/acs.jmedchem.0c00311). Purified proteins were >95% pure based on SDS-PAGE analysis.
(§3) DHODH activity was monitored in a steady-state assay using the 2,6-dichloroindophenol (DCIP) method at 25°C in assay buffer (100 mM HEPES, pH 8.0, 150 mM NaCl, 1% glycerol, 0.1% Triton X-100 reduced) plus substrates 20 µM CoQD, 200 µM DHO, 120 µM DCIP, and 5 nM enzyme as previously described (Malmquist et al, 2008, Biochemistry, 47 (8), 2466-2475. DOI: 10.1021/bi702218c).
(§4) Compound stocks were prepared at 10-100 mM in DMSO, and diluted working stocks in DMSO were generated as appropriate. Compounds were plated from DMSO stocks in 96 well plate format using a Tecan D300e digital dispenser to generate a 3-fold dilution series over a concentration range of 0.0003 -100 µM (or 30 µM), yielding a final DMSO concentration of 1% in the assay. The top concentration used in the dose response was determined by the initial DMSO stock concentrations:100 µM for 100 mM stocks, and 30 µM for 10 mM stocks. Triplicate rate data were collected at each inhibitor concentration. Inhibitory IC50 values were determined by fitting the data to log (inhibitor) vs response equation Y = bottom + (top - bottom)/(1 + 10A ((X - Log IC50))) in GraphPad Prism. DSM265 ^2 was plated as an assay control in all studies.

Experiment [2] has as its target T1, P. falciparum DHODH (Plasmodium falciparum, UniProt Q08210).
T1 construct: His6 (N); made in house; host or cells: E. coli BL21-DE3 (phage-resistant)
Nature of the experiment: DHODH inhibition, steady-state DCIP assay (PfDHODH). It counts as biochemical. The following applies: recombinant PfDHODH, DCIP method, 25°C, 5 nM enzyme. Here is the method:
as §4, with “Prism.” for “Prism. DSM265 ^2 was plated as an assay control in all studies.”

Experiment [3] has as its target T2, Human DHODH (Homo sapiens, UniProt Q02127).
T2 construct: C-terminal His6-tagged HsDHODH residues 29-395 in pET-22b (start ^29MATGDE); His6 (C); made in house; host or cells: E. coli BL21-DE3 (phage-resistant)
Nature of the experiment: DHODH inhibition, steady-state DCIP assay (human DHODH). It counts as biochemical. The following applies: recombinant HsDHODH, DCIP method, 25°C, 5 nM enzyme; top concentration 100 µM or 30 µM.
Description: as §1, §2, §3, §4

In experiment [4] the test system is P. falciparum 3D7. Nature of the experiment: Asexual blood-stage growth inhibition assay, SYBR green method. The format is cell-based. The following applies: ring-stage 3D7 parasites. Here is the method:
Asexual blood-stage EC50 assays. […] Compound stocks prepared in DMSO were plated using a Tecan D300e automated low volume liquid handler. Ring-stage 3D7 or Dd2 parasites (60 µL cells) (2% hematocrit, 0.5% parasitemia, final DMSO concentration 0.5%) were added to plates, incubated with compounds over a range of concentrations in technical triplicate for 72 h at 37 °C, 5% CO2, and then frozen (-80°C) overnight before analysis. […] Data were analyzed by non-linear regression using GraphPad Prism to determine the EC50 by fitting to the built-in equation (log(inhibitor) vs response-variable slope with four parameters).

Where [5] appears, read: recombinant PvDHODH, DCIP method, 25°C, 5 nM enzyme; read-out: P. vivax DHODH (IC50).
Where [6] appears, read: Plasmodium falciparum, 3D7, 72 h.
The mark [7] stands for this setting: read-out: P. vivax DHODH (IC50); recombinant PvDHODH, DCIP method, 25°C, 5 nM enzyme.

Chain of P. vivax DHODH (A5K1N1 entry or part of it): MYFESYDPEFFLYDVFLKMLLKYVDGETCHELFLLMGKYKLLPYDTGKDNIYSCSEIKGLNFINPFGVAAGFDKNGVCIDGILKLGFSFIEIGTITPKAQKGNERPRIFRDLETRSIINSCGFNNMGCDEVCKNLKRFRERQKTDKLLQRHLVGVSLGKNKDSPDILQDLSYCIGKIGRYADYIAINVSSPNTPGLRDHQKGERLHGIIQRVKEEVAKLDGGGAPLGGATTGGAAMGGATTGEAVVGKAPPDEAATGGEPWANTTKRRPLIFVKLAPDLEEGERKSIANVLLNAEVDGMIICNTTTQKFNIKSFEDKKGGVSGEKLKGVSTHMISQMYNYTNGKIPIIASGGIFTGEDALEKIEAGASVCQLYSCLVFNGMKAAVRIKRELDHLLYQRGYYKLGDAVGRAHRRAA
T2 sequence (Q02127 29-395): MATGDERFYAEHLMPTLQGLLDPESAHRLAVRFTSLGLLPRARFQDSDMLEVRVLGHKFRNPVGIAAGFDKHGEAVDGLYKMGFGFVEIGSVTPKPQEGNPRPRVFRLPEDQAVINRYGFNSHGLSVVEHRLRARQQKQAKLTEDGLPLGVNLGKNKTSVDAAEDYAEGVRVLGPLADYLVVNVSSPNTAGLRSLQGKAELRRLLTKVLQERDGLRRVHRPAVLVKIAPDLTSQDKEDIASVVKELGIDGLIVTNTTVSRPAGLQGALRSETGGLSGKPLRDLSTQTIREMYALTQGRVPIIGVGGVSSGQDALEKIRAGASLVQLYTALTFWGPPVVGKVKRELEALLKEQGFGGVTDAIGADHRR
T1 sequence (Q08210 158-569): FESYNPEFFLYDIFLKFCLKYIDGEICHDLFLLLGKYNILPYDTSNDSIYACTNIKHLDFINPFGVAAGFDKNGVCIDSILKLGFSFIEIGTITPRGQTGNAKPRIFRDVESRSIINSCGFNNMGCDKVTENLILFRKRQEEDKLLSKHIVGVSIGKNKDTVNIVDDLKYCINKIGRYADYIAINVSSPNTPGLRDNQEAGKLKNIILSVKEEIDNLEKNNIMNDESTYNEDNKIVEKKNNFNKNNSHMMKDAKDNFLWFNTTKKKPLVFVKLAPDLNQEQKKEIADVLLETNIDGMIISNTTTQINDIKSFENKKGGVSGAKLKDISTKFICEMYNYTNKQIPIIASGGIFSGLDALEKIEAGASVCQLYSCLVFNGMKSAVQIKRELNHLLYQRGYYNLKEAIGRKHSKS

As usually defined, the IC50 is the concentration at which inhibition is half-maximal. In general, EC50 refers to the concentration giving half of the maximal effect. A lower EC50 goes with an effect from little substance. As to `CC[C@@](N)(c1ccc(C(F)(F)F)c(F)c1)c1c2ccn(C3CC3)c(=O)c2nn1C` (single isomer, unassigned) [4-5], the IC50 is 7 nM in experiment [1] (setting [5]), 16 nM in experiment [2] and 1300 nM in experiment [3]. This compound also gave an EC50 in experiment [4] (setting [6]) of 10 nM.
For the compound `Cn1nc2c(=O)n(C3CC3)cnc2c1[C@](O)(c1cnc(C(F)(F)F)c(C#N)c1)C(F)(F)F` (single isomer, unassigned) [5-52], the IC50 in experiment [1] (setting [5]) was 46 nM; in experiment [2], 62 nM; in experiment [3] it was more than 30000 nM. This compound gave an EC50 in experiment [4] (setting [6]) of 11 nM.
The corresponding values for `Cn1nc2c(=O)n(C3CC3)ncc2c1[C@](N)(c1ccc(C(F)(F)F)c(Cl)c1)C1CC1` (single isomer, unassigned) [4-16] are 7.8 nM, 17 nM, 16000 nM and 7.4 nM.
Consider `Cn1nc2c(=O)n(C3CC3)cnc2c1[C@](N)(c1ccc(C(F)(F)F)c(Cl)c1)C(F)(F)F` (single isomer, unassigned) [5-51], for which the IC50 in experiment [1] (setting [5]) is 4 nM; in experiment [2], 4.3 nM; in experiment [3], 30000 nM. For the same compound, in experiment [4] (setting [6]), the EC50 is 0.71 nM.
With `CC(C)[C@@](O)(c1cnc(C(F)(F)F)c(Cl)c1)c1c2ccn(C3CC3)c(=O)c2nn1C` (single isomer, unassigned) [1-1], the IC50 in experiment [1] (setting [5]) is 40 nM; in experiment [2] it was 46 nM; in experiment [3] it was more than 30000 nM. In addition, in experiment [4] (setting [6]), a half-maximal response (EC50) required 16 nM.
With `CC[C@@](O)(c1ccc(C(F)(F)F)nc1)c1c2ncn(C3CC3)c(=O)c2nn1C` (single isomer, unassigned) [3-7], the half-inhibitory concentration (IC50) in experiment [1] (setting [5]) worked out at 55 nM; in experiment [2], 27 nM; in experiment [3] it was 14000 nM. Further, in experiment [4] (setting [6]), the midpoint of the response, the EC50, lay at 1.6 nM.
With `CCn1cc(C)c2c([C@H](O)c3ccc(Cl)c(F)c3)n(C)nc2c1=O` (single isomer, unassigned) [1-30], the results for the concentration for half-maximal inhibition (IC50) in experiment [1] (setting [5]), in experiment [2] and in experiment [3] were 7.9 nM, 18 nM and 34000 nM, respectively. In addition, in experiment [4] (setting [6]), the EC50 amounted to 7 nM.
For `Cn1nc2c(=O)n(C3CC3)ccc2c1[C@](C)(O)c1ccc(F)c(Cl)c1` (single isomer, unassigned) [1-9], in that order: 6.9 nM, 16 nM, 14000 nM and 0.92 nM.
For `Cn1nc2c(=O)n(C3CC3)ncc2c1[C@](O)(c1ccc(C(F)(F)F)c(Cl)c1)C1CC1` (single isomer, unassigned) [2-11], the figures for the IC50 in experiment [1] (setting [5]), in experiment [2] and in experiment [3] were 9.9 nM, 9.6 nM and more than 30000 nM, respectively. In experiment [4] (setting [6]), this compound gave an EC50 of 1.9 nM.
Consider `CCn1ccc2c([C@](O)(c3cnc(C(F)(F)F)c(Cl)c3)C3CC3)n(C)nc2c1=O` (single isomer, unassigned) [1-32], for which the half-maximal inhibitory concentration (IC50) was 8 nM in experiment [1] (setting [5]) and more than 100000 nM in experiment [3]. The same compound gave a concentration giving a half-maximal response (EC50) in experiment [4] (setting [6]) of 2.4 nM.
For the compound `CC[C@@](N)(c1ccc(F)c(Cl)c1)c1c2ncn(C3CC3)c(=O)c2nn1C` (single isomer, unassigned) [4-22], the IC50 in experiment [1] (setting [5]) was found to be 20 nM; in experiment [2] it was 23 nM; in experiment [3] it was 4600 nM. In experiment [4] (setting [6]), this compound displayed an EC50 of 4.1 nM.
For `CCn1cc(F)c2c([C@@](O)(CC)c3ccc(C(F)(F)F)nc3)n(C)nc2c1=O` (single isomer, unassigned) [1-24], in that order: 33 nM, 24 nM, 6200 nM and 1.2 nM.
The corresponding values for `Cn1nc2c(=O)n(C3CC3)ccc2c1[C@](N)(c1ccc(C(F)(F)F)c(Cl)c1)C(F)(F)F` (single isomer, unassigned) [5-49] are 4.2 nM, 3.9 nM, 9000 nM and 0.64 nM.
With `Cn1nc2c(=O)n(C3CC3)ccc2c1[C@](O)(c1cnc(C(F)(F)F)c(Cl)c1)C(F)(F)F` (single isomer, unassigned) [5-5], the IC50 in experiment [3] is more than 30000 nM. In experiment [4] (setting [6]), this compound displayed an EC50 of 0.51 nM.
As to `CC[C@@](O)(c1cc(F)c(Cl)c(F)c1)c1c2ccn(C3CC3)c(=O)c2nn1C` (single isomer, unassigned) [1-20], the IC50 in experiment [1] (setting [5]) amounted to 19 nM; in experiment [3], 1400 nM. This compound also had an EC50 in experiment [4] (setting [6]) of 0.5 nM.
Turning to `CC[C@@](O)(c1cnc(C(F)(F)F)c(Cl)c1)c1c2cnn(C3CC3)c(=O)c2nn1C` (single isomer, unassigned) [2-14], in experiment [3], the IC50 was more than 30000 nM. In experiment [4] (setting [6]), a half-maximal response (EC50) required 2.7 nM.
Take `Cn1nc2c(=O)n(C3CC3)ccc2c1[C@](O)(c1ccc(C(F)(F)F)nc1)C(F)(F)F` (single isomer, unassigned) [5-11]: the IC50 was 25 nM in experiment [1] (setting [5]) and more than 30000 nM in experiment [3]. In experiment [4] (setting [6]), this compound returned a concentration giving a half-maximal response (EC50) of 1.9 nM.
For the compound `CC[C@@](N)(c1ccc(C(F)(F)F)c(Cl)c1)c1c2cnn(C3CC3)c(=O)c2nn1C` (single isomer, unassigned) [4-18], the IC50 in experiment [1] (setting [5]) came out at 6.2 nM; in experiment [3], 4700 nM. The compound also displayed an EC50 in experiment [4] (setting [6]) of 3.4 nM.
Consider `Cn1nc2c(=O)n(C3CC3)ncc2c1[C@](O)(c1cnc(C(F)(F)F)c(Cl)c1)C(F)(F)F` (single isomer, unassigned) [5-1], for which the IC50 was 20 nM in experiment [1] (setting [5]) and more than 30000 nM in experiment [3]. In addition, a half-maximal response in experiment [4] (setting [6]) (EC50) required 3.8 nM.
For the compound `Cn1nc2c(=O)n(C3CC3)cnc2c1[C@](O)(c1ccc(C(F)(F)F)c(C#N)c1)C(F)(F)F` (single isomer, unassigned) [5-56], the IC50 in experiment [2] was determined as 18 nM. The 50% effective concentration (EC50) in experiment [4] (72 h) is 0.14 nM.
Regarding `Cn1nc2c(=O)n(C3CC3)ccc2c1[C@](C)(O)c1cnc(C(F)(F)F)c(Cl)c1` [1-10], the IC50 in experiment [1] (setting [7]) was 9.7 nM; in experiment [2] it was 25 nM. In experiment [4] (setting [6]), this compound showed an EC50 of 1.4 nM.
As for `Cn1nc2c(=O)n(C3CC3)ncc2c1[C@](O)(c1cnc(C(F)(F)F)c(Cl)c1)C1CC1` (single isomer, unassigned) [2-10], the IC50 was 21 nM in experiment [1] (setting [5]) and more than 30000 nM in experiment [3]. The EC50 in experiment [4] (setting [6]) was 15 nM.
The corresponding values for `CC[C@@](O)(c1ccc(C(F)(F)F)nc1)c1c2ccn(C3CC3)c(=O)c2nn1C` (single isomer, unassigned) [1-22] are 48 nM, 5300 nM and 2.7 nM.
For the compound `Cn1nc2c(=O)n(C3CC3)ccc2c1[C@](N)(c1cnc(C(F)(F)F)c(Cl)c1)C1CC1` (single isomer, unassigned) [4-9], the figures for the IC50 in experiment [2] and in experiment [3] were 44 nM and 21000 nM, respectively. In experiment [4] (setting [6]), this compound displayed an EC50 of 14 nM.
`CC[C@@](O)(c1cnc(C(F)(F)F)c(Cl)c1)c1c2ncn(C3CC3)c(=O)c2nn1C` (single isomer, unassigned) [3-5]: the IC50 in experiment [1] (setting [5]) was 17 nM; in experiment [3], 6800 nM. In experiment [4] (setting [6]), this compound gave an EC50 of 0.94 nM.
For the compound `Cn1nc2c(=O)n(C3CC3)ccc2c1[C@](O)(c1ccc(C(F)(F)F)c(Cl)c1)C(F)(F)F` (stereo in doubt) [5-7], the IC50 is 9.1 nM in experiment [1] (setting [7]) and 4700 nM in experiment [3]. The compound also showed an EC50 in experiment [4] (setting [6]) of 0.17 nM.
Take `CCn1ccc2c([C@](O)(c3ccc(C(F)(F)F)nc3)C3CC3)n(C)nc2c1=O` (single isomer, unassigned) [1-44]: the IC50 in experiment [1] (setting [5]) was 29 nM; in experiment [3], more than 100000 nM. The EC50 in experiment [4] (setting [6]) amounted to 7.2 nM.
